Consider one compound from patent US10781224B2, “Bis(oxymethyl)phosphinic acid and biogenic metal salts thereof as regulators of plant growth and development” (priority 2016, dated 2020).

In the experiment the test system is winter wheat (Kazan 560 variety). Put plainly: Field study: winter wheat seed treatment and spraying, yield and quality of the grain. Type of experiment: in vivo. The note with it: for Field germination, % / Grain mass from the main ear / Number of grains in an ear / Viability, % / Yield, dt/ha: winter wheat. Here is the method:
Field studies were conducted for the BHMPA Mg-salt. The effect of treatment winter wheat seeds (Kazan 560 variety) with BHMPA Mg-salt solutions on the yield and quality of the grain was examined. The field experiment was conducted at a branch of a fallow rotation. The seeds were sowed on Sep. 1, 2015, in an area covering 1.7 hectares of the experimental field located at the experimental base of Tatarstan Research Institute of Agriculture. For comparison, the seeds were treated with the BHMPA Mg-salt solution and the known growth-regulator Melaphen at the same concentrations, optimum for Melaphen.
The experiment was conducted for the following variants: • 1. Control (no seed treatment); • 2. Seed treatment with the BHMPA Mg-salt solution at a 1·10^−7% concentration; • 3. Seed treatment with the BHMPA Mg-salt solution at a 1·10^−7% concentration+spraying with the BHMPA Mg-salt solution at a 1·10^−8% concentration upon vegetation during spring tillering and earing phases; • 4. Seed treatment with the growth regulator Melaphen at a 1·10^−7% concentration; • 5. Seed treatment with Melaphen at a 1·10^−7% concentration and spraying with Melaphen at a 1·10^−8% concentration upon vegetation during spring tillering and earing phases.
The seeds were treated with the experimental compounds together with a seed disinfectant at a rate of 10 ml/T. The vegetating plants were treated at a rate of 5 ml/ha. Identical field operations appropriate for that zone as well as plant protection measures against weeds and disease, were applied in all cases.
Results of field experiments with BHMPA Mg-salt as the main growth-regulating component of said pre-sowing seed treatment combined with additional treatment of winter wheat plants with other claimed BHMPA salts, are presented in Table XXXV.

[1] abbreviates: seed treatment 1 · 10^−7% + spraying plants with the same substance 1 · 10^−8%.

The structures appear in SMILES notation.

In the case of `O=P([O-])(CO)CO.O=P([O-])(CO)CO.[Mg+2]` [Mg-salt, Magnesium BHMPA Salt], the plant viability result (field, seed treatment plus additional spraying during spring tillering and earing phases) was “up to 61%”. Besides, the “yield of winter wheat” value (field, seeds treated at 1·10^−7% and plants sprayed with 1·10^−8%, control 21.7 dt/ha) is reported as 30.7 dt/ha. Also, the plant viability result (winter wheat Kazan 560, field, pre-sowing seed treatment, control 41%) is “up to 55%”. In addition, the “germination rate (field)” value (winter wheat Kazan 560, field, pre-sowing seed treatment, control 67%) is given as “up to 70%”. Under “seed treatment 1 · 10^−7%”, the “Field germination, %” value worked out at 70%; the “Grain mass from the main ear” value is 1.1 g; the “Number of grains in an ear” value is 31; the “Viability, %” value is reported as 55%. The “Yield, dt/ha” value (seed treatment 1 · 10^−7%) is reported as 29.2 dt/ha. Moreover, under setting [1], the “Field germination, %” value is reported as 70%; the “Grain mass from the main ear” value is listed as 1.1 g; the “Number of grains in an ear” value turned out to be 32; the “Viability, %” value is listed as 61%. Moreover, the “Yield, dt/ha” value under setting [1] turned out to be 30.7 dt/ha.
